Active and inactive are the calls of the source. The calls are words filed in the database; no cut-off is given here.
How the values were obtained:
[1] = biological target: Serine/threonine-protein kinase Nek6 (Homo sapiens) (UniProt Q9HC98); experiment: Inhibition of NEK6 Lys2 labeling site harbouring DIKPANVFITATGVVK in human Huh-7 cells at 1 uM by KiNativ Profiling analysis relative to control; type: cell-based
[2] = biological target: STE20-like serine/threonine-protein kinase (Homo sapiens) (UniProt Q9H2G2); experiment: Inhibition of SLK Lys2 labeling site harbouring IIHRDLKAGNILFTLDGDIK in human Huh-7 cell lysate at 1 uM by KiNativ Profiling analysis relative to control; type: subcellular
[3] = biological target: Tyrosine-protein kinase ABL1 (Homo sapiens, UniProt P00519); experiment: Inhibition of ABL ACT labeling site in human Huh-7 cells at 1 uM by KiNativ Profiling analysis relative to control; type: cell-based
[4] = biological target: Hepatocyte growth factor receptor (Homo sapiens) (UniProt P08581); experiment: Inhibition of MET ACT labeling site in human Huh-7 cell lysate at 1 uM by KiNativ Profiling analysis relative to control; type: subcellular
[5] = biological target: Tyrosine-protein kinase ABL2 (Homo sapiens, UniProt P42684); experiment: Inhibition of ARG ACT labeling site in human Huh-7 cells at 1 uM by KiNativ Profiling analysis relative to control; type: cell-based
[6] = biological target: Rho-associated protein kinase 1 (Homo sapiens) (UniProt Q13464); experiment: Inhibition of ROCK1 Lys2 labeling site in human Huh-7 cell lysate at 1 uM by KiNativ Profiling analysis relative to control; type: subcellular
[7] = biological target: Phosphatidylinositol 4,5-bisphosphate 3-kinase catalytic subunit beta isoform (Homo sapiens) (UniProt P42338); experiment: Inhibition of PIK3CB (unknown origin) at 1 uM by Ambit Kinomescan binding assay relative to control; values are per cent of control
[8] = biological target: Dual specificity mitogen-activated protein kinase kinase 2 (Homo sapiens) (UniProt P36507); experiment: Inhibition of MEK2 (unknown origin) at 1 uM by Ambit Kinomescan binding assay relative to control; values are per cent of control
[9] = biological target: 5'-AMP-activated protein kinase catalytic subunit alpha-2 (Homo sapiens) (UniProt P54646); experiment: Inhibition of AMPKa2 Lys2 labeling site in human A-375 cells at 0.05 uM by KiNativ Profiling analysis relative to control; type: cell-based
[10] = biological target: Ribosomal protein S6 kinase alpha-5 (Homo sapiens) (UniProt O75582); experiment: Inhibition of C-terminal RPS6KA5 kinase domain 2 (unknown origin) at 1 uM by Ambit Kinomescan binding assay relative to control
[11] = biological target: Tyrosine-protein kinase FRK (Homo sapiens) (UniProt P42685); experiment: Inhibition of FRK (unknown origin) at 1 uM by Ambit Kinomescan binding assay relative to control; values are per cent of control
[12] = biological target: Tyrosine-protein kinase Fyn (Homo sapiens) (UniProt P06241); experiment: Inhibition of FYN (unknown origin) at 1 uM by Ambit Kinomescan binding assay relative to control; values are per cent of control
[13] = biological target: Cyclin-dependent kinase-like 5 (Homo sapiens) (UniProt O76039); experiment: Inhibition of CDKL5 (unknown origin) at 1 uM by Ambit Kinomescan binding assay relative to control; values are per cent of control
[14] = biological target: DNA-dependent protein kinase catalytic subunit (Homo sapiens) (UniProt P78527); experiment: Inhibition of PRKDC ATP labeling site harbouring KGGSWIQEINVAEKNWYPR in human Huh-7 cells at 10 uM by KiNativ Profiling analysis relative to control; type: cell-based
[15] = biological target: Calcium/calmodulin-dependent protein kinase type 1D (Homo sapiens) (UniProt Q8IU85); experiment: Inhibition of CAMK1D (unknown origin) at 10 uM by Ambit Kinomescan binding assay relative to control
[16] = biological target: T1, Dual specificity mitogen-activated protein kinase kinase 4 (Homo sapiens) (UniProt P45985); experiment: Inhibition of MAP2K4 Lys2 labeling site in human A-375 cells at 0.05 uM by KiNativ Profiling analysis relative to control; type: cell-based
T1 sequence (whole entry): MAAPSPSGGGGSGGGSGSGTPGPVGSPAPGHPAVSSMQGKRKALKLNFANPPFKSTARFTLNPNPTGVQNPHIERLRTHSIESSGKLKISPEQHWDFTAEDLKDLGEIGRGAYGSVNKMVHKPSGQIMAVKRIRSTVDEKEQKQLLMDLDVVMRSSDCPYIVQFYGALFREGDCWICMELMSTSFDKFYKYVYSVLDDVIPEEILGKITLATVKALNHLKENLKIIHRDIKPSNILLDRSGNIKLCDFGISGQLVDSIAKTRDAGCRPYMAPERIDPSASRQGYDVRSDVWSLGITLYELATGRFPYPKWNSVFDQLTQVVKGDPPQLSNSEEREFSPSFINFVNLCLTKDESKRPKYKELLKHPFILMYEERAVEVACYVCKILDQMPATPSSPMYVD

[17] = biological target: STE20-like serine/threonine-protein kinase (Homo sapiens) (UniProt Q9H2G2); experiment: Inhibition of SLK K1 labeling site in human Huh-7 cells at 1 uM by KiNativ Profiling analysis relative to control; type: cell-based
[18] = biological target: Serine/threonine-protein kinase RIO3 (Homo sapiens) (UniProt O14730); experiment: Inhibition of RIOK3 (unknown origin) at 10 uM by Ambit Kinomescan binding assay
[19] = biological target: Cyclin-dependent kinase 8 (Homo sapiens) (UniProt P49336); experiment: Inhibition of CDK8 (unknown origin) at 10 uM by Ambit Kinomescan binding assay relative to control; values are per cent of control
[20] = biological target: Serine/threonine-protein kinase tousled-like 2 (Homo sapiens) (UniProt Q86UE8); experiment: Inhibition of TLK2 (unknown origin) at 10 uM by Ambit Kinomescan binding assay
[21] = biological target: Mitogen-activated protein kinase kinase kinase kinase 4 (Homo sapiens, UniProt O95819); experiment: Inhibition of ZC1/HGK K1 labeling site harbouring TGQLAAIKVMDVTEDEEEEIKLEINMLKK in human Huh-7 cells at 10 uM by KiNativ Profiling analysis relative to control; type: cell-based

Chain of STE20-like serine/threonine-protein kinase (Homo sapiens) (Q9H2G2 whole entry, looked up): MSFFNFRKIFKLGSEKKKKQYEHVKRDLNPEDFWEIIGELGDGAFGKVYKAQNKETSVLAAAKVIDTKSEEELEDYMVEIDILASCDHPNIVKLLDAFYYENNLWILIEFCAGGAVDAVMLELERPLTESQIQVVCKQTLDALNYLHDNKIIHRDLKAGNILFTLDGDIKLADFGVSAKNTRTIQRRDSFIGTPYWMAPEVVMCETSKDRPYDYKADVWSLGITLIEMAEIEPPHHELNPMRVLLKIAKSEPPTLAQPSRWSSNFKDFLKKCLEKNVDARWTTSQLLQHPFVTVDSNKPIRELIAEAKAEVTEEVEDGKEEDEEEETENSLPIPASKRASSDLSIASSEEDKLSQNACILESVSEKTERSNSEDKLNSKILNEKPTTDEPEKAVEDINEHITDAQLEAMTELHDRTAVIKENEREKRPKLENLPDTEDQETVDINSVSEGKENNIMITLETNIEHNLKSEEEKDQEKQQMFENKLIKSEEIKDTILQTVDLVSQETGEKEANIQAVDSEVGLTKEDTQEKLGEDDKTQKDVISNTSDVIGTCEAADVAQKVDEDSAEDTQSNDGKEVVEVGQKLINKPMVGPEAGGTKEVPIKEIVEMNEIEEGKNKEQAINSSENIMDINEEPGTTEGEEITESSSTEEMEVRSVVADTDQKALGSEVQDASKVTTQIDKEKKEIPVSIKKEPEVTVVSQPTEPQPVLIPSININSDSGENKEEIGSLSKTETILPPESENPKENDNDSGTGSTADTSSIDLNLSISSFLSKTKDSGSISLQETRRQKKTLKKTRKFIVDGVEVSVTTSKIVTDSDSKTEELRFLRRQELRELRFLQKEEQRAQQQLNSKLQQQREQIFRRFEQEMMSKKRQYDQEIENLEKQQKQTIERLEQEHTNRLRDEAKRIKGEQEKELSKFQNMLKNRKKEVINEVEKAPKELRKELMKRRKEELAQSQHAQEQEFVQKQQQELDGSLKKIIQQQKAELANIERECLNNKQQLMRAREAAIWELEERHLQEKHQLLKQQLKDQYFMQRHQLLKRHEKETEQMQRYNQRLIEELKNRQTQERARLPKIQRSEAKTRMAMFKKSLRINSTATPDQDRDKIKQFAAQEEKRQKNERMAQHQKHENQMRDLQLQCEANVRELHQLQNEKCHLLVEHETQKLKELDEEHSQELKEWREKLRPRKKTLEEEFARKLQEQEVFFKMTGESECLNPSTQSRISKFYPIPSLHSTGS
Chain of Hepatocyte growth factor receptor (Homo sapiens) (P08581 whole entry): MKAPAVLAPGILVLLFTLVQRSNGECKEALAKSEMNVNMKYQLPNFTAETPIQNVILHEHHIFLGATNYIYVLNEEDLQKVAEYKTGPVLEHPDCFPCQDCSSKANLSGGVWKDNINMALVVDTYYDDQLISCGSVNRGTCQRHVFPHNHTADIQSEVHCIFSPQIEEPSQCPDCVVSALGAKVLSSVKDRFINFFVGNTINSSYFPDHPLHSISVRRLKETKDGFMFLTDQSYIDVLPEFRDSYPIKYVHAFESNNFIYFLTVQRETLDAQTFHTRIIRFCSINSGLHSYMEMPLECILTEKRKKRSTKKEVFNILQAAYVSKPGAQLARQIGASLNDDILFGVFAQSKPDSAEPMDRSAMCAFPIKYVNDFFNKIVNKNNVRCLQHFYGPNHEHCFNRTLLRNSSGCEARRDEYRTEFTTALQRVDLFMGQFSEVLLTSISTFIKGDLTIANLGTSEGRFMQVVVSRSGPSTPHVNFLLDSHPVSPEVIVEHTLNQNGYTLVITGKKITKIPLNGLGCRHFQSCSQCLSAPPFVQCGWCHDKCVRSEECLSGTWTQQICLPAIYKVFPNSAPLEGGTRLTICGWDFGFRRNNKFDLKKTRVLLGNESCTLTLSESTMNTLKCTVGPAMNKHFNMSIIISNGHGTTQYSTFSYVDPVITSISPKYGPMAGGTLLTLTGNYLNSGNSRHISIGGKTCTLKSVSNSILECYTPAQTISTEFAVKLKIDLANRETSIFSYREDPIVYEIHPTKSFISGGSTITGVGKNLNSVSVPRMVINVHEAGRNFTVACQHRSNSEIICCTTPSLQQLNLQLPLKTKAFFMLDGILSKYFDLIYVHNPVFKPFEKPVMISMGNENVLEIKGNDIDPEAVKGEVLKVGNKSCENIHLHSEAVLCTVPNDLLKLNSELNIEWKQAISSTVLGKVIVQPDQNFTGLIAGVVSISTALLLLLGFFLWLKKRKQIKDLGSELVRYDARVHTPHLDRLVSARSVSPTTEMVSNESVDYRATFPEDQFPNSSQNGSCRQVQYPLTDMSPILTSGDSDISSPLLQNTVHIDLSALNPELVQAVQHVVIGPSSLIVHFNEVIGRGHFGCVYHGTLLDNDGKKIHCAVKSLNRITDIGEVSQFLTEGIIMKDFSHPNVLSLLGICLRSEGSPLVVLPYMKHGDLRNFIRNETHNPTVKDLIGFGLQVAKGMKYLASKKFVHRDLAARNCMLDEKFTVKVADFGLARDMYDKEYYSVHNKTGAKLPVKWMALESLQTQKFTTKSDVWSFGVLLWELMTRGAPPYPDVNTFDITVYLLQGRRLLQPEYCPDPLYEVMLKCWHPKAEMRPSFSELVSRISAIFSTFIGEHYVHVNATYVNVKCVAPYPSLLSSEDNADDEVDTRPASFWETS
Chain of Tyrosine-protein kinase FRK (Homo sapiens) (P42685 whole entry): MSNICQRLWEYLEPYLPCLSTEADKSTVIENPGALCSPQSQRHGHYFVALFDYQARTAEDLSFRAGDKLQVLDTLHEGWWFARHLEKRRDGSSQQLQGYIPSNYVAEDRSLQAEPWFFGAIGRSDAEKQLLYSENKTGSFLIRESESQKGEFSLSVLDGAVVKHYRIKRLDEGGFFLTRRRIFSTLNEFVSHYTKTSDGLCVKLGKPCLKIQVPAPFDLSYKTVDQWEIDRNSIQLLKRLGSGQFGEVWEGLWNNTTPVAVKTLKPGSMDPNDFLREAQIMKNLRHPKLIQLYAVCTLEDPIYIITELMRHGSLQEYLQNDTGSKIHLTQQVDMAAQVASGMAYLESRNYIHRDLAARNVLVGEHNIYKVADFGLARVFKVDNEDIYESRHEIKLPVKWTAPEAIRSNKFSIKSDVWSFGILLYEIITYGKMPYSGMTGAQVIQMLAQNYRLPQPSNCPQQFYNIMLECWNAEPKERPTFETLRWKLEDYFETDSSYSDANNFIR
Chain of Tyrosine-protein kinase ABL2 (P42684 whole entry): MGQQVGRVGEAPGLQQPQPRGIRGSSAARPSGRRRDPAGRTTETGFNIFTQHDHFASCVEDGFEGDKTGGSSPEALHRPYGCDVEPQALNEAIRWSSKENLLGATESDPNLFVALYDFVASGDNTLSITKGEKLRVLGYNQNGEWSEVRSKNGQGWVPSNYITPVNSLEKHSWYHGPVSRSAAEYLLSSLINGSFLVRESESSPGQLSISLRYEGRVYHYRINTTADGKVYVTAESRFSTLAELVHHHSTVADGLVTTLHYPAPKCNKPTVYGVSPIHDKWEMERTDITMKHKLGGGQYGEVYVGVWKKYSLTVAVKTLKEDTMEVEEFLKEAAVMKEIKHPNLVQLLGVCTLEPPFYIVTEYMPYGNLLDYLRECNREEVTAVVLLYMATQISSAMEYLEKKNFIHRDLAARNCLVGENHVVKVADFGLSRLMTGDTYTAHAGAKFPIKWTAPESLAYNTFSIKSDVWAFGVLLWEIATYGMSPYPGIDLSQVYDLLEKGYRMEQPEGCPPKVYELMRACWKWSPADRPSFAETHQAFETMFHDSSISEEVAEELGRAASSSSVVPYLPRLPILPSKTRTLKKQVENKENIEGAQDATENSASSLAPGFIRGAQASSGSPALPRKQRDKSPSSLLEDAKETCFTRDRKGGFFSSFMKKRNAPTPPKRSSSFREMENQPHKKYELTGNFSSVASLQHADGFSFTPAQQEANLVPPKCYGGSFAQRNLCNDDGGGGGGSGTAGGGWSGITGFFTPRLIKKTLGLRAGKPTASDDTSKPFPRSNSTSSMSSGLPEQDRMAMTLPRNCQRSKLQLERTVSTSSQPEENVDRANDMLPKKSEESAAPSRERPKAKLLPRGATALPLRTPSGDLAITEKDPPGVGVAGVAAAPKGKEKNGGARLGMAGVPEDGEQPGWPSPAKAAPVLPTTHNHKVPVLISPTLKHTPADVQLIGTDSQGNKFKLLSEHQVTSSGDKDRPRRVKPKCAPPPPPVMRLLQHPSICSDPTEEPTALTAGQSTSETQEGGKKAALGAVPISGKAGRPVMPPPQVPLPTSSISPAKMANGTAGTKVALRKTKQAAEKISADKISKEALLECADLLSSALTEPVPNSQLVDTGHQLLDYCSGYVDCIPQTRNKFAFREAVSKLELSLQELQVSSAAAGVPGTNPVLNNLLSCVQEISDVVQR
Chain of Dual specificity mitogen-activated protein kinase kinase 2 (Homo sapiens) (P36507 whole entry): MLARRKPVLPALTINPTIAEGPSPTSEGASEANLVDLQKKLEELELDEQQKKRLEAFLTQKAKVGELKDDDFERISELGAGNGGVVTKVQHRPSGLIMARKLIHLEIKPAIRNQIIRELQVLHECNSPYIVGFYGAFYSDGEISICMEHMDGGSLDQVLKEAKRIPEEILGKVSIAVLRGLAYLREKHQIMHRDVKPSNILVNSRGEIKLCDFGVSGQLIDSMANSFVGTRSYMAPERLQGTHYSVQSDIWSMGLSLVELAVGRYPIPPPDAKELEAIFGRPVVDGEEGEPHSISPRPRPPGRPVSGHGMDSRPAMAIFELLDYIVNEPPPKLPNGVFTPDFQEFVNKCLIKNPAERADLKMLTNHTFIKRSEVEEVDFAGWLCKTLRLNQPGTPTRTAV
Chain of Calcium/calmodulin-dependent protein kinase type 1D (Homo sapiens) (Q8IU85 whole entry, looked up): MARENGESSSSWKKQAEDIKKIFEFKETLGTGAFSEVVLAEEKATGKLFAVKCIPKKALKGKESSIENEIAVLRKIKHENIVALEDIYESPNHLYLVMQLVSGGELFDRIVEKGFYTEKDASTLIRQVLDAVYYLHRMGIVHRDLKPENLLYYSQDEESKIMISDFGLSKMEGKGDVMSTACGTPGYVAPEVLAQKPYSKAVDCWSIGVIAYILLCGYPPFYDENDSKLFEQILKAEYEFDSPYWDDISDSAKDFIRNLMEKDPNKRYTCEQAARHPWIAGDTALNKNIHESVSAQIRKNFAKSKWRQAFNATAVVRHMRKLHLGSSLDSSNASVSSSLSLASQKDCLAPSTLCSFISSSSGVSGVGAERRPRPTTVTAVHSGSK

CNc1cc(Oc2cc(C(=O)Nc3cc(N4CCN(C)CC4)cc(C(F)(F)F)c3)ccc2C)ncn1
inhibition [1]: -2.7%
inhibition [2]: 24.8%
inhibition [3]: 31.6%
inhibition [4]: 2%
inhibition [5]: 31.6%
inhibition [6]: 2.7%

CCN1CCN(Cc2ccc(NC(=O)c3ccc(C)c(/C=C/c4cnc5[nH]ccc5c4OC)c3)cc2C(F)(F)F)CC1
residual activity [7]: 100%
residual activity [8]: 74%
inhibition [9]: 7.3%
inhibition [10]: 100%
residual activity [11]: 3.6%
percent of control [12]: 5.2%
residual activity [13]: 100%

CCN1CCN(Cc2ccc(NC(=O)c3ccc(C)c(Oc4ccnc5[nH]ccc45)c3)cc2C(F)(F)F)CC1
inhibition [14]: 1.9%
inhibition [15]: 6.2%
inhibition [16]: -3.4%
inhibition [17]: 3.5%
inhibition [18]: inactive
percent of control [19]: 3.9%
inhibition [20]: inactive
inhibition [21]: 75.4%

Reference: ChEMBL document CHEMBL5696442, “Discovery of type II inhibitors of TGFβ-activated kinase 1 (TAK1) and mitogen-activated protein kinase kinase kinase kinase 2 (MAP4K2)” (J Med Chem, 2015)
